# Test results published in patent US20150320774A1, “FORMULATIONS OF CYCLOPHOSPHAMIDE LIQUID CONCENTRATE” (AuroMedics Pharma LLC, priority 2014, published 2015).
# Read-outs that look alike come from different tables or passages of the source.
# Columns and labels:
# physchem = conditions: organic solvent or mixture
# From the text: In this example, studies were initiated to determine the solubility of cyclophosphamide monohydrate in pharmaceutically acceptable solvents such as propylene glycol, polyethylene glycol and ethanol.
# [1] = 500 mg/ml; for colour of solution upon storage: all temperature conditions
# Method: Since these solvents provided more than adequate solubility, the stability of the solutions containing cyclophosphamide at a concentration of 500 mg/ml was examined.
structure (smiles),measurement,setting,value
"O.O=P1(N(CCCl)CCCl)NCCCO1 (stereo not shown) [cyclophosphamide monohydrate, 2-[bis(2-chloroethyl)amino]-tetrahydro-2H-1,3,2-oxazaphosphorine-2-oxide monohydrate]",solubility,physchem; ethanol,> 500 mg/mL
same,solubility,physchem; polyethylene glycol,> 500 mg/mL
same,solubility,physchem; propylene glycol,> 500 mg/mL
same,degradation,[1]; PEG 400 as sole solvent,Significant degradation
same,colour of solution upon storage,[1]; PEG 400 as sole solvent,turning visibly yellow in color
same,degradation,[1]; PG as sole solvent,Significant degradation
same,colour of solution upon storage,[1]; PG as sole solvent,turning visibly yellow in color
